Earlier results on 2 compounds are cited in US20240261272A1, “LPA1 ANTAGONISTS FOR TREATING INTERSTITIAL LUNG DISEASE” (Bristol-Myers Squibb Company, priority 2022, published 2024).

One data set deals with patients with PPF. As to conditions: 52-week study period; cited from earlier work.
The next data set deals with patients with IPF. As to conditions: cited from earlier work.

Consider `COC(=O)c1ccc2c(c1)NC(=O)/C2=C(\Nc1ccc(N(C)C(=O)CN2CCN(C)CC2)cc1)c1ccccc1` [nintedanib], for which the “progression of lung fibrosis, annual rate of decline in FVC versus placebo (in words)” value in the data set on patients with PPF is listed as “slower progression of lung fibrosis than those who received placebo”. Further, in the data set with patients with IPF, the “decline in lung function (in words)” value is listed as “significantly reduce the decline in lung function”.
`Cc1ccc(=O)n(-c2ccccc2)c1` [pirfenidone]: the “decline in lung function (in words)” value in the data set with patients with IPF is “significantly reduce the decline in lung function”.
